Experimental data as given in paper PMC6429459, “The HslV Protease from Leishmania major and Its Activation by C-terminal HslU Peptides” (International Journal of Molecular Sciences, 2019).
Entries after “also recorded” stand apart in the source; their conditions may differ. Numbered stars: 1 amine (or outer) side, 2 acyl side, 3 side chain; on linkers, the order of the positions; unused ones are H or OH. * marks the point of attachment. AMC = Cc1cc(=O)oc2cc(N*)ccc12; Suc = O=C(CCC(=O)[*:2])[*:1]

Assays:
recombinant LmHslV = experiment: LmHslV peptidase activation by HslU C-terminal peptides, substrate Z-EVNL-AMC (JMV4482); assay type: biochemical, Leishmania major; conditions: for Potency of LmHslV activation relative to LmC12-U2 / LmHslV activation relative to reference peptide 10 (LmC12-U2): LmHslV 75.2 nM, 37 °C, Z-EVNL-AMC 100 μM, Figure 3; for LmHslV activation relative to reference peptide 10 (LmC12-U2): initial velocity normalised to 10 = 100%
Experimental: (§1) Activity assay: The peptidase activity of recombinant LmHslV was assessed by measuring the fluorescence of AMC released after hydrolysis of the fluorogenic substrates Z-GGL-AMC or JMV4482 (Z-EVNL-AMC), 100 µM. LmHslV activation was obtained by addition of activating peptides (see type and concentration in the figure legends). Activity buffer: 25 mM Tris-HCl pH 8.0, 1 mM DTT, 0.5 mM EDTA and 5 mM MgCl2. Most of the experiments were performed in a final volume of 50 µL in black 96-well microplates (Fisher Scientific, Illkirch, France. Fluorescence was measured using a spectrofluorimeter (BIO-TEK Instrument, Inc., Winooski, VT, USA): filters 360/340 for excitation and 460/440 for emission.
Figure 3 Both peptides derived from the C-terminal end of either LmHslU1 or LmHslU2 and analogues from other microorganisms are able to support LmHslV activation. LmHslV (75,2nM) was incubated at 37 °C with the peptide substrate Z-EVNL-AMC (100 μM) in the presence of peptides 8–11 and 1–15 (500 μM). A scrambled version of LmC12-U2 (44) was also included. The fluorescence of the free AMC group, proportional to the activity of the sample, was measured at 2 min. intervals.
Figure 4 Sequence requirements for activation of LmHslV by C-terminal LmHslU2 peptides. (A) Alascan. Percentage of initial velocity relative to compound LmC12-U2. Fluorescence was measured for 30 min incubation at 37 °C of LmHslV (2 μg) with 100 μM JMV4482 (Z-EVNL-AMC) in the presence of 500 μM peptides. (B) D-scan. Percentage of initial velocity relative to compound LmC12-U2. Activity was measured as in (A). (C) Truncated peptides. Percentage of activity relative to compound LmC12-U2, measured as in (A).
Figure 5 Effect of conformational constraints on HslV activation by HslU C-terminal peptides. HslV activity was measured in the presence of various cyclic analogues of LmC12-U2 and LmC9-U2. Values are expressed as percentage of initial velocity relative to compound LmC12-U2.
Figure S3. Effect of LmC12-U2 dimerization. LmHslV has been incubated at 37°C for 30 min with […]
the substrate Z-EVNL-AMC (100µM). The fluorescence generated by the cleavage of the substrate was recorded at 5 min intervals. The dotted line represents the ratio at each time point between the fluorescence values obtained with the two peptides.
(also on this page, place not known: dimerization . ( 12), Di-C12 / C12 Fluorescence (arbitrary unit) Ratio)

[1] = Circular dichroism, α-helix content from θ at 222 nm; assay type: physicochemical; conditions: for Helicity%: 25 mM Tris-HCl pH 8.0, 20 °C, 100% helicity for θ = −36,000; for θmre at 222 nm: 25 mM Tris-HCl pH 8.0, around 200 μM peptide, 20 °C, 1 mm cuvette, 3 scans
Experimental: CD spectra (Figure S2) were recorded on a JASCO J-815 spectropolarimeter from 190 to 260 nm (data pitch of 0.1 nm, continuous scanning mode, 200 nm/min, 3 scans) at 20 °C, using a 1 mm path length cuvette. Baseline was corrected by subtracting the background from the sample spectrum.
Peptides were solubilised in 50 mM Tris-HCl, pH 8.0 buffer at an estimated concentration of 400 μM according to their apparent molecular mass (i.e. M + xTFA with x = number of basic groups). The solutions were then diluted twice (25 mM Tris and around 200 μM peptides final concentrations) with: […]

LmHslV = experiment: Degradation of fluorogenic substrates by LmC12-U2-activated LmHslV; assay type: biochemical, Leishmania major; conditions: LmHslV 75.2 nM, 37 °C, substrate 100 μM, activating peptide LmC12-U2 500 μM; Figure 2; in words
Experimental: as §1
Figure 2 Degradation of different fluorogenic substrates by LmHslV. LmHslV (75.2 nM) was incubated at 37 °C with different fluorogenic substrates (100 μM) in the presence of the activating peptide LmC12-U2 (500 μM). The fluorescence of the free AMC group, proportional to the activity of the sample, was measured at 2 min. intervals. With each substrate, no activity was measured in the absence of activating peptide: for the sake of clarity, only the negative control values obtained with the substrate ZGGL-AMC are shown.

[2] = substrate Z-EVNL-AMC, Figure 5, in words

## H-arg-O2Oc-Leu-Gln-Lys-Asn-Val-Asn-leu-Ala-Lys-Tyr-Leu-Leu-OH [Compound 23]
Recombinant LmHslV; LmHslV 2 μg, 30 min at 37 °C, JMV4482 (Z-EVNL-AMC) 100 μM, peptide 500 μM, Figure 4, in words
  LmHslV activation, Ala-scan, D-scan and truncations, relative to LmC12-U2: no activity

## H-arg-O2Oc-Leu-Gln-Lys-c[Asp-Val-Asn-Leu-Dap]-Lys-Tyr-Leu-Leu-OH (sidechain bridge or staple) [Compound 42]
Recombinant LmHslV; [2]
  LmHslV activation by cyclic analogues relative to reference peptide 10: almost half as active as the reference peptide

## H-arg-O2Oc-Leu-Gln-Lys-c[Asp-Val-Asn-Leu-Lys]-Lys-Tyr-Leu-Leu-OH (sidechain bridge or staple) [Compound 37]
Recombinant LmHslV; [2]
  LmHslV activation by cyclic analogues relative to reference peptide 10: the more potent cyclic analogue
[1]; 0% TFE
  Helicity%: 5%
  θmre at 222 nm: −1626 deg.cm^2.dmol^−1
[1]; 25% TFE
  Helicity%: 17%
  θmre at 222 nm: −6143 deg.cm^2.dmol^−1
[1]; 50% TFE
  θmre at 222 nm: −7628 deg.cm^2.dmol^−1

## H-arg-O2Oc-Leu-Gln-Lys-c[Asp-Val-Asn-Leu-Orn]-Lys-Tyr-Leu-Leu-OH (sidechain bridge or staple) [Compound 41]
Recombinant LmHslV; [2]
  LmHslV activation by cyclic analogues relative to reference peptide 10: activity decreased

## H-arg-O2Oc-Leu-Gln-Lys-c[Asp-Val-Asn-Leu-lys]-Lys-Tyr-Leu-Leu-OH (sidechain bridge or staple) [Compound 39]
Recombinant LmHslV; [2]
  LmHslV activation by cyclic analogues relative to reference peptide 10: much more potent than the linear compound 24

## H-arg-O2Oc-Leu-Gln-Lys-c[asp-Val-Asn-Leu-lys]-Lys-Tyr-Leu-Leu-OH (sidechain bridge or staple) [Compound 40]
Recombinant LmHslV; cyclic analogues, substrate Z-EVNL-AMC, Figure 5
  Relative potency: percentage of initial velocity relative to LmC12-U2: 55%

## H-arg-O2Oc-Leu-Met-Asn-Asn-Ile-Asp-Leu-Ala-Lys-Tyr-Ile-Leu-OH [Compound 13]
Recombinant LmHslV; peptide 500 μM
  Potency of LmHslV activation relative to LmC12-U2: twice

## H-arg-O2Oc-Leu-Val-Ala-Asp-Glu-Asp-Leu-Ser-Arg-Phe-Ile-Leu-OH [Compound 15]
Recombinant LmHslV; peptide 500 μM, in words
  LmHslV activation relative to reference peptide 10 (LmC12-U2): as potent as LmC12-U2

## H-arg-O2Oc-Met-Val-Lys-Lys-Val-Asp-Ile-Lys-Lys-Tyr-Ile-Leu-OH [Compound 9]
Recombinant LmHslV; peptide 500 μM, in words
  LmHslV activation relative to reference peptide 10 (LmC12-U2): increase in activity; also recorded: large increase in potency

## H-arg-O2Oc-Phe-Ile-Lys-Gln-Tyr-Asp-Leu-Lys-Lys-Tyr-Ile-Ile-OH [Compound 14]
Recombinant LmHslV; peptide 500 μM
  Potency of LmHslV activation relative to LmC12-U2: 1.5 fold

## H-arg-O2Oc-c[Asp-Val-Asn-Leu-Lys]-Lys-Tyr-Leu-Leu-OH (sidechain bridge or staple) [Compound 43]
Recombinant LmHslV; [2]
  LmHslV activation by cyclic analogues relative to reference peptide 10: almost as active as the reference peptide 10; also recorded: did not reduce the activity compared to LmC12-U2 (10)
[1]; 0% TFE
  Helicity%: 6%
  θmre at 222 nm: −2225 deg.cm^2.dmol^−1
[1]; 25% TFE
  Helicity%: 14%
  θmre at 222 nm: −5026 deg.cm^2.dmol^−1
[1]; 50% TFE
  Helicity%: 14%
  θmre at 222 nm: −5140 deg.cm^2.dmol^−1

## Suc-LLVY-{AMC}
LmHslV
  Degradation of fluorogenic substrate by activated LmHslV: degraded by peptide-activated LmHslV
